The text below walks through data of PubChem BioAssay (NCI).

Assay in all cases: NCI tumour cell line growth inhibition, 48 h
The test system of experiment [1] is A498 renal.
Experiment [2] deals with COLO 205 colon.
Experiment [3] deals with MALME-3M melanoma.
Experiment [4] concerns MCF7 breast.
Experiment [5] has as its system NCI-H23 lung.
Experiment [6] has as its system OVCAR-3 ovarian.
For experiment [7], the system named is SF-539 CNS.
Experiment [8] deals with SN12C renal.
The test system of experiment [9] is UACC-257 melanoma.
Experiment [10] deals with UACC-62 melanoma.

Structures are written as SMILES. Values joined by “and” are separate entries in the source; they are usually repeats but may differ in a detail not shown here. Equal entries are not always repeated.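 Exposure lasted 48 hours, with cells grown in 96-well plates and compounds tested at five concentrations. At the GI50, growth is halved. Definition used: TGI = concentration required for complete inhibition of growth.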

On to `O=S(=O)(Nc1ccc(-c2nc(-c3cccc(OCCN4CCOCC4)c3)c(-c3ccnc(Br)c3)[nH]2)cc1)c1ccccc1`, for which the GI50 in experiment [1] is 1.53 µM; in experiment [2], 3.54 µM; in experiment [3] it was 2.2 µM; in [4], 2.16 µM; in experiment [5], 2.43 µM; in experiment [6] it was 4.71 µM. Besides, the GI50 was 3.68 µM in experiment [7], 5.37 µM in experiment [8], 3.03 µM in [9] and 2.66 µM in experiment [10]. For the same compound, the TGI is 6.94 µM in experiment [1]; above 100 µM in experiment [2]; 56.9 µM in [3]; 8.51 µM in experiment [4]; 8.71 µM in experiment [5]; above 100 µM in experiment [6]. For the same compound, the TGI is above 100 µM in experiment [7], above 100 µM in [8], 12 µM in experiment [9] and 12.1 µM in [10].

For the compound `C[C@@H]1O[C@@H](O[C@H]2C[C@@H](O)[C@]3(CO)C4C(CC[C@]3(O)C2)[C@@]2(O)CC[C@H](C3=CC(=O)OC3)[C@@]2(C)C[C@H]4O)[C@H](O)[C@H](O)[C@H]1O` (some centres undefined), the GI50 is 0.0387 µM in experiment [1]; 0.0747 µM in [2]; 0.0197 µM in experiment [3]; 0.0244 µM in [4]; 0.0163 µM in experiment [5]; 0.0168 µM in experiment [6]. Moreover, the GI50 was 0.0185 µM in experiment [7], 0.0178 µM in experiment [8], 0.0626 µM in [9] and 0.0819 µM in experiment [10]. Moreover, the TGI in [1] stood at 0.262 µM; in [2], 0.151 µM; in experiment [3], 0.0828 µM; in experiment [4], 0.121 µM; in experiment [5], 0.0602 µM; in experiment [6] it was 0.0487 µM. In addition, the TGI is 0.0599 µM in experiment [7], 0.0844 µM in experiment [8], 0.129 µM in experiment [9] and 0.151 µM in [10].

With `Cn1cc(-c2cc3c(Nc4ccc(CC(=O)Nc5cc(C(C)(C)C)on5)cc4)ncnc3[nH]2)cn1`, the GI50 in [1] is 0.692 µM and 1.07 µM; in [2] it was 0.364 µM and 0.354 µM; in experiment [3] it was 0.615 µM and 0.354 µM; in [4], 0.352 µM and 0.259 µM; in experiment [5], 0.811 µM and 0.449 µM; in [6], 0.496 µM and 0.36 µM. The GI50 in experiment [7] was 0.425 µM and 0.265 µM; in [8], 0.671 µM and 0.471 µM; in experiment [9] it was 2.04 µM; in experiment [10], 0.583 µM and 0.455 µM. The TGI in experiment [1] was 1.81 µM and 3.03 µM; in experiment [2] it was 1.21 µM and 1.65 µM; in experiment [3] it was 2.36 µM and 1.75 µM; in experiment [4], 10.3 µM and 4.01 µM; in experiment [5], 3.49 µM and 2.51 µM; in [6], 2.48 µM and 2.54 µM. Besides, the TGI is 1.7 µM and 1.63 µM in [7]; 4.05 µM and 4.15 µM in [8]; 6.96 µM and 6.99 µM in [9]; 1.71 µM and 1.9 µM in experiment [10].

Regarding `O=S(=O)(c1cccc(C(F)(F)F)c1)N1c2ccccc2-n2cccc2C1c1cccnc1` (centres undefined), the TGI was above 64 µM in experiment [1]; above 54.6 µM in [2]; above 54.5 µM in experiment [3]; above 76 µM in [4]; above 100 µM in experiment [5]; above 55 µM in experiment [6]. The TGI in [7] was above 60.9 µM; in experiment [8] it was above 62.3 µM; in [9], above 54.6 µM; in [10], above 59.5 µM.

Turning to `CN(C)c1c(Cl)c(=O)oc2c1ccc1nc(-c3ccccc3)sc12`, the TGI in experiment [1], in [2], in experiment [3], in [4], in [5] and in experiment [6] was above 100 µM in each case. The TGI in experiment [7], in experiment [8], in [9] and in [10] was above 100 µM in each case.

Turning to `O=C1Nc2ccc(Cl)cc2/C1=C\c1c(-c2ccc(F)cc2)nc2ccccn12`, the GI50 in experiment [1] is 1.21 µM; in experiment [2], 4.03 µM; in experiment [3], 3.8 µM; in experiment [4], 2.71 µM; in [5], 2.37 µM; in experiment [6] it was 1.89 µM. The GI50 in experiment [7] was 2.09 µM; in [8], 2.88 µM; in experiment [9] it was 3.11 µM; in experiment [10], 2.58 µM. Moreover, the TGI amounted to 4.51 µM in experiment [1]; 13.6 µM in [2]; 14.8 µM in experiment [3]; 10.7 µM in experiment [4]; 7.57 µM in [5]; 3.8 µM in [6]. Moreover, the TGI in experiment [7] was determined as 5 µM; in [8] it was 10.8 µM; in experiment [9] it was 16.3 µM; in experiment [10], 11.5 µM.

In the case of `COc1ccc(OC)c(/C=C/[N+](=O)[O-])c1`, the GI50 in [1] is 3.26 µM; in [3], 2.19 µM and 5.66 µM; in experiment [9], 3.19 µM; in experiment [10], 1.98 µM and 4.37 µM. Moreover, the TGI in experiment [1] is 8.42 µM and 8.29 µM; in experiment [2], 4.06 µM and 6.76 µM; in experiment [3], 7.26 µM and 11 µM; in experiment [4] it was 8.64 µM; in [5], 13.6 µM and 8.12 µM; in [6], 4.9 µM and 3.31 µM. In addition, the TGI in experiment [7] was 13.8 µM and 10.4 µM; in experiment [8] it was 7.19 µM and 7.69 µM; in experiment [9], 11.7 µM and 8.28 µM; in [10], 5.34 µM and 12.1 µM.

In the case of `Nc1ccccc1C#C/C=C\C#Cc1ccc(F)cc1F`, the GI50 in experiment [1] is 15.8 µM; in [2], 29.5 µM; in experiment [3] it was 6.11 µM; in experiment [4] it was 6.28 µM; in experiment [5], 13.3 µM; in [6], 6.2 µM. Further, the GI50 in [7] was 7.22 µM; in experiment [8] it was 12.3 µM; in experiment [9], 19.5 µM; in experiment [10], 14.6 µM. Further, the TGI in experiment [1] was determined as 31.9 µM; in experiment [2], 82 µM; in experiment [3] it was 22.5 µM; in [4], 38.5 µM; in experiment [5], 32.2 µM; in experiment [6] it was 21.4 µM. Moreover, the TGI in [7] was determined as 22.4 µM; in experiment [8], 27.7 µM; in experiment [9], 50 µM; in experiment [10], 32.5 µM.
